The subject of data set [1] is CEM (human lymphoblastoid) cells. The experiment in a line: Cellular toxicity assay in CEM cells. Format: cell-based. As for the experimental part: (§1) The toxicity of the compounds was assessed in Vero, human PBM, CEM (human lymphoblastoid), MT-2, and HepG2 cells, as described previously (see Schinazi R. F., Sommadossi J.-P., Saalmann V., Cannon D. L., Xie M.-Y., Hart G. C., Smith G. A. & Hahn E. F. Antimicrob. Agents Chemother. 1990, 34, 1061-67). Cycloheximide was included as positive cytotoxic control, and untreated cells exposed to solvent were included as negative controls. The cytotoxicity IC50 was obtained from the concentration-response curve using the median effective method described previously (see Chou T.-C. & Talalay P. Adv. Enzyme Regul. 1984, 22, 27-55; Belen'kii M. S. & Schinazi R. F. Antiviral Res. 1994, 25, 1-11).

For a further data set, the system named is human PBM cells. Kind of data set: Cellular toxicity assay in human PBM cells. Format: cell-based. Particulars: Human PBM cells. As for the experimental part: as §1
Another data set has as its system Vero cells. The experiment in a line: Cellular toxicity assay in Vero cells. The class given is cell-based. As for the experimental part: as §1
Data set [2] in a line: Cellular toxicity assay in CEM cells. The class given is cell-based, human. The settings on record: human, read-out: Cytotoxicity, CC50. As for the experimental part:
as §1

A short description of data set [3]: Cellular toxicity assay in human PBM cells. The class given is cell-based. The settings on record: read-out: Cytotoxicity, CC50. As for the experimental part:
as §1

Data set [4] can be described thus: Cellular toxicity assay in Vero cells. Format: cell-based. Particulars: African green monkey, read-out: Cytotoxicity, CC50. As for the experimental part:
as §1

Data set [5] concerns HCV GT 1b replicon (Huh-7 cells). The experiment in a line: HCV replicon assay. The class given is cell-based. The settings on record: Hepatitis C virus, GT1B. As for the experimental part:
(§2) The HCV replicon assay was carried out as described in Stuyver L et al., Ribonucleoside analogue that blocks replication or bovine viral diarrhea and hepatitis C viruses in culture. Antimicrob. Agents Chemother. 2003, 47, 244-254. Huh 7 Clone B cells containing HCV Replicon RNA were seeded in a 96-well plate at 5000 cells/well, and the compounds tested at 10 μM in triplicate immediately after seeding. Following five days incubation (37° C., 5% CO2), total cellular RNA was isolated by using versaGene RNA purification kit from Gentra. Replicon RNA and an internal control (TaqMan rRNA control reagents, Applied Biosystems) were amplified in a single step multiplex Real Time RT-PCR Assay. The antiviral effectiveness of the compounds was calculated by subtracting the threshold RT-PCR cycle of the test compound from the threshold RT-PCR cycle of the no-drug control (ΔCt HCV). A ACt of 3.3 equals a 1-log reduction (equal to 90% less starting material) in Replicon RNA levels. The cytotoxicity of the compounds was also calculated by using the ΔCt rRNA values. 2′-C-Me-C was used as the positive control. To determine EC90 and IC50 values (using methods described in Reed I J & Muench H, A simple method or estimating fifty percent endpoints. Am. J. Hyg. 27: 497, 1938), ΔCt: values were first converted into fraction of starting material (Applied Biosystems Handbook) and then were used to calculate the % inhibition.
(In general: A replicon is a self-replicating genome or part of one, used to study replication in cells.)

Data set [6] can be described thus: Cytotoxicity in HCV replicon assay (ΔCt rRNA). The class given is cell-based. The settings on record: human, Huh-7 Clone B cells containing HCV GT 1b replicon RNA, Huh-7 cells. As for the experimental part:
as §2, with “To determine EC90 and IC50 values (using methods described in Reed I J & Muench H, A simple method or estimating fifty percent endpoints. Am. J. Hyg. 27: 497, 1938), ΔCt: values were first converted into fraction of starting material (Applied Biosystems Handbook) and then were used to calculate the % inhibition.” left out

Read-outs that look alike come from different tables or passages of the source. Bounds are passed on as bounds.

Here are results for four compounds from US20170334941A1, “2',2'-DIHALO NUCLEOSIDE ANALOGS FOR TREATMENT OF THE FLAVIVIRIDAE FAMILY OF VIRUSES AND CANCER” (COCRYSTAL PHARMA, INC., priority 2014, published 2017).

The % inhibition is the drop in the measured response relative to a control, in per cent. A word on the CC50: it is the concentration that lowers cell viability or growth by half. What is called EC50 is the midpoint of the concentration-response curve. For orientation: EC90 means the point of the concentration-response curve where the effect stands at 90%.

For `O=c1ccn(C2OC(CO)C(O)C2(Cl)Cl)c(=O)[nH]1` (centres unmarked) [Compound 17], the “% inhibition at maximum concentration evaluated” value (“% inhibition” below) in data set [1] is on record as −1.9%; in the data set on human PBM cells it was −11%; in the data set on Vero cells it was 1.4%. Besides, the 50% cytotoxic concentration (CC50) in data set [1] (read-out: Cytotoxicity, CC50) is over 100 µM; in the data set with human PBM cells (read-out: Cytotoxicity, CC50), over 100 µM; in the data set with Vero cells (read-out: Cytotoxicity, CC50), over 100 µM.

For `CC(C)OC(=O)[C@H](C)NP(=O)(OC[C@H]1O[C@@H](n2ccc(=O)[nH]c2=O)C(Cl)(Cl)[C@@H]1O)Oc1ccccc1` (stereo partly drawn) [Compound 18, (2S)-isopropyl 2-(((((2R,3R,5R)-4,4-dichloro-5-(2,4-dioxo-3,4-dihydropyrimidin-1(2H)-yl)-3-hydroxytetrahydrofuran-2-yl)methoxy)(phenoxy)phosphoryl)amino)propanoate], the “% inhibition” value in data set [1] was determined as 17%; in the data set with human PBM cells, 25%; in the data set with Vero cells, 2.3%. The CC50 in data set [2], in data set [3] (Human PBM cells) and in data set [4] was over 100 µM throughout.

Turning to `Nc1ccn([C@@H]2O[C@H](CO)[C@@H](O)C2(Cl)Cl)c(=O)n1` [Compound 22, 4-amino-1-((2R,4R,5R)-3,3-dichloro-4-hydroxy-5-(hydroxymethyl)tetrahydrofuran-2-yl)pyrimidin-2(1H)-one], the “% inhibition” value in data set [1] was 87%; in the data set with human PBM cells it was 82%; in the data set on Vero cells, 101%. For the same compound, the CC50 in data set [2] (CEM lymphoblastoid cells) is under 1 µM; in data set [3] (human, human PBM cells), under 1 µM; in data set [4], under 1 µM. In addition, in data set [5] (HCV GT 1b replicon, Huh-7 cells, read-out: EC50), the concentration giving a half-maximal response (EC50) is over 10 µM. In addition, the EC90 in data set [5] (HCV GT 1b replicon, Huh-7 cells, read-out: EC90) was over 10 µM. In data set [6], this compound yielded a CC50 at 5 days of over 10 µM.

For `CC(C)OC(=O)[C@H](C)NP(=O)(OC[C@H]1O[C@@H](n2ccc(N)nc2=O)C(Cl)(Cl)[C@@H]1O)Oc1ccccc1` (stereo partly drawn) [Compound 23, (2S)-isopropyl 2-(((((2R,3R,5R)-5-(4-amino-2-oxopyrimidin-1(2H)-yl)-4,4-dichloro-3-hydroxytetrahydrofuran-2-yl)methoxy)(phenoxy)phosphoryl)amino)propanoate], the “% inhibition” value in data set [1] is on record as “(−86 @ 100) %”; in the data set with human PBM cells it was 91%; in the data set with Vero cells, 101%. Also, the CC50 in data set [3] (Human PBM cells) and in data set [4] was under 1 µM throughout. The EC50 in data set [5] (Huh-7) was in the range of 0.1 to 1 µM. Also, in data set [5] (Huh-7), the concentration for an effect of 90% (EC90) was in the range of 0.1 to 1 µM. In data set [6], this compound came in with a CC50 at 5 days of over 10 µM.
